Experimental data reported in paper PMC10077692, “Phytochemical profile, comparative evaluation of Satureja montana alcoholic extract for antioxidants, anti-inflammatory and molecular docking studies” (BMC Complementary Medicine and Therapies, 2023).

System: MDA
Test: In-vitro antioxidant assay, MDA
Assay type: biochemical
Description: The enzymatic assays of COXs, LOX, TAC, Catalase, MDA, GSH, SOD, TNF -α, and MPO were determined colorimetrically as mentioned previously in reports.
Microsoft Excel 2010 program. All the data in Table 4 was represented as mean ± SD [23].
Total antioxidant capacity is the measure of the number of free radicals scavenged by a test solution, being used to evaluate the antioxidant capacity of biological samples. […] The standard ascorbic acid results were (19.7, 17.2 and 13.1 IU/ml) for TAC, Catalase and SOD, respectively.

## O=C1O[C@H]([C@@H](O)CO)C(O)=C1O [ascorbic acid]
  MDA level: 15.3 µg/mL
